Experimental data: patent US20260109721A1, “IONIZABLE CATIONIC LIPIDS INCORPORATING SILICON: SYNTHESIS AND LNP FORMULATION” (priority 2023, published 2026)

How the values were obtained:
[1] = test system: HepG2 cell line; assay: In vitro toxicity study on HepG2 cell line (resazurin, viability and IC50); type: cell-based, human; details: resazurin; for Viability (%) at different lipid concentrations, mean: HepG2 cells, 48 h post-treatment, relative to ethanol vehicle controls; for IC50: Homo sapiens, lipid toxicity, HepG2, 48 h post-treatment, 6.25-800 μM, read-out: IC50 value, μM (on HepG2 cell)
How it was run: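 Resazurin read-out (ex 530/em 580 nm, 5 h at 37 °C) measured lipid toxicity 48 h after dosing HepG2 cells (1000/well) at 6.25–800 μM. Viability was normalised to ethanol vehicle, and IC50 was derived from concentration-response curves.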

[2] = LNP size, PDI and zeta potential by Dynamic Light Scattering (Method A); type: physicochemical; details: LNP formulated with the lipid, DLS
How it was run: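 Dynamic light scattering gave size, polydispersity and zeta potential of Method A nanoparticles. These were made from Luc mRNA in 10 mM citrate pH 4.0 combined with ethanol lipid master mix plus ionizable lipid on a dean-type chip (3:1, TFR around 12 ml/min).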

| Compound | Viability (%) at different lipid concentrations, mean ([1]; 6.25 μM lipid) [%] | Viability (%) at different lipid concentrations, mean ([1]; 12.5 μM lipid) [%] | Viability (%) at different lipid concentrations, mean ([1]; 25 μM lipid) [%] | Viability (%) at different lipid concentrations, mean ([1]; 50 μM lipid) [%] | Viability (%) at different lipid concentrations, mean ([1]; 100 μM lipid) [%] | Viability (%) at different lipid concentrations, mean ([1]; 200 μM lipid) [%] | Viability (%) at different lipid concentrations, mean ([1]; 400 μM lipid) [%] | Viability (%) at different lipid concentrations, mean ([1]; 800 μM lipid) [%] | IC50 [1] [µM] | PDI [2] | Size (nm) [2] [nm] | Zeta potential (mV) [2] [mV] |
| --- | --- | --- | --- | --- | --- | --- | --- | --- | --- | --- | --- | --- |
| CCCCC/C=C\C/C=C\CCCCCCCCOC(CCCCCCC/C=C\C/C=C\CCCCC)O[Si](C)(C)OCCCCCCN(C)CC(O)CO (stereo not drawn) [Example 59, (24Z,27Z)-14-((8Z,11Z)-heptadeca-8,11-dien-1-yl)-4,12,12-trimethyl-11,13,15-trioxa-4-aza-12-silatritriaconta-24,27-diene-1,2-diol] | 97.3 | 100.1 | 112.6 | 112.9 | 76.9 | 29.0 | 18.1 | 8.3 | 149 | 0.105 | 112.8 | −8.941 |
| CCCCC/C=C\C/C=C\CCCCCCCCOC(CCCCCCC/C=C\C/C=C\CCCCC)O[Si](C)(C)OCCCCCCN(C)CCCCO (stereo not drawn) [Example 60, (25Z,28Z)-15-((8Z,11Z)-heptadeca-8,11-dien-1-yl)-5,13,13-trimethyl-12,14,16-trioxa-5-aza-13-silatetratriaconta-25,28-dien-1-ol] | 100.0 | 99.3 | 98.4 | 107.2 | 117.1 | 101.1 | 73.6 | 35.2 | 310 | 0.041 | 201.0 | −7.785 |
| CCCCC/C=C\C/C=C\CCCCCCCCOC(CCCCCCC/C=C\C/C=C\CCCCC)O[Si](C)(C)OCCCCCCN(CCCCO)CCCCO (stereo not drawn) [Example 62, (25Z,28Z)-15-((8Z,11Z)-heptadeca-8,11-dien-1-yl)-5-(4-hydroxybutyl)-13,13-dimethyl-12,14,16-trioxa-5-aza-13-silatetratriaconta-25,28-dien-1-ol] | 100.4 | 110.2 | 122.5 | 116.9 | 68.2 | 13.2 | −0.6 | −0.7 | 113 | 0.13 | 236.8 | −10.74 |
| CCCCC/C=C\C/C=C\CCCCCCCCOC(CCCCCCC/C=C\C/C=C\CCCCC)O[Si](C)(C)OCCCCCCN1CCCCC1CO (stereo not drawn) [Example 64, (1-((20Z,23Z)-10-((8Z,11Z)-heptadeca-8,11-dien-1-yl)-8,8-dimethyl-7,9,11-trioxa-8-silanonacosa-20,23-dien-1-yl)piperidin-2-yl)methanol] | 99.5 | 98.7 | 100.3 | 97.8 | 97.8 | 91.7 | 80.3 | 47.4 | 775 | 0.098 | 293.7 | −9.226 |
